Patent publication US20220362275A1, “Method and Compositions for Treating Glioblastoma” (PHOENIX BIOTECHNOLOGY, INC., priority 2019, published 2022)
Entries after “also recorded” stand apart in the source; their conditions may differ. Where two headings read alike, the source gives them in different places.

How the values were obtained:
[1] = system: caspase 3, 8 and 9 in human GBM U87MG, U251 and T98 cells; test: Caspase 3, 8 and 9 enzymatic activity (chromogenic substrates); format: cell-based; settings: pan-caspase inhibitor added
Method: For cell cycle analysis, cells (2.5×10^6) grown in 100-mm dishes were treated with PBI-05204 (0.5-2.5 μg/ml) for 24 hr. Cells were subjected to trypsinization and centrifugation, and the pellets were suspended and washed in 1× phosphate-buffered saline solution (PBS) and were fixed overnight in 70% ethanol at 4° C. The cells were then washed with 1×PBS and were suspended in PBTB staining solution containing PBS, 0.5% bovine serum albumin (BSA), 0.005% Tween-20, propidium iodide (10 μg/ml) and DNase-free RNase (1 μg/ml). Cells were incubated in the dark for 30 min at 37° C. before fluorescence-activated cell-sorting (FACS) analysis using a BD FACS Caliber flow cytometer (BD Biosciences, San Jose, Calif.). The percentage of cells in each phase of the cell cycle was estimated from the DNA histogram content. Apoptosis was evaluated by APOSTRAND™ ELISA apoptosis detection kit (3V Chimica S.r.l. Rome, Italy) and by caspase-specific chromogenic substrates at 450 nm in an ELISA plate reader such as Ac-DEVD-pNA (caspase-3), Ac-IETD-pNA (caspase 8) and Ac-LEHD-pNA (caspase 9) purchased from Kaneka Eurogentec SA (Seraing, Belgium).

[2] = cited from earlier work
[3] = system: GBM; settings: cited from earlier work
[4] = Oral bioavailability anticipated from human clinical data; settings: in vivo, based on human clinical data, read-out: part of an administered dose orally bioavailable
[5] = system: GBM9 stem cell line; test: High throughput growth/viability assay (Cell Titer Glo-3D), GBM9; format: cell-based; settings: FIG. 17E
Method: (§1) A total of 500 GBM9 cells or 1,000 GS28 cells per well suspended in 50 ul of media are seeded into Greiner Black 384-well plates (Cat #781091) using Multidrop Combi liquid dispenser (ThermoFisher).
(§2) The cells are allowed to recover and form a monolayer overnight at 37 C in a humidified chamber with 5% CO2.
(§3) After recovery, 50 nl of each drug are transferred into well using an Echo 550 acoustic dispensing platform (Labcyte).
(§4) In the combination screen, two or three drugs are tested with a fixed volume of DMSO ([…]) and two biological replicates. Each assay plate contains a fixed concentration of drug in addition to a negative control (0.1% DMSO), a positive control (10 uM Doxorubicin), and an 8-point dose response curve of the positive controls. Each well image is taken using the ImageXpress Micro Conforcal High Content Imaging System (MolecularDevices) everyday four times.
(§5) After 72 hr incubation in the presence of drug, plates are aspirated for left 25 ul and then, 25 ul of Cell Titer Glo-3D (Promega) are added and incubated for 20 minutes. Assay plates are read on the Synergy Neo2 Hybrid Multi-Mode Microplate Reader (BioTek).

[6] = system: GS28 stem cell line; test: High throughput growth/viability assay (Cell Titer Glo-3D), GS28; format: cell-based; settings: FIG. 17D
Method: as §1, §2, §3, §4, §5

[7] = system: GBM; settings: addition to standard treatment; cited from earlier work
[8] = all concentrations ranging from 1×10^−4.5 to 1×10^−7 M

Molecule: z-VAD-fmk
- PBI-05204 induced caspase 3 activity [1]: largely inhibited

Molecule: Cn1nnc2c(C(N)=O)ncn2c1=O [TMZ, temozolomide]
- entry into the cerebrospinal fluid ([2]; in vivo): readily enters
- pharmacokinetics ([2]; in vivo): linear
- bioavailability ([2]; oral): excellent
- grade ≥3 toxicity ([3]; ddTMZ arm): 53%
- grade ≥3 toxicity ([3]; sdTMZ arm): 34%

Molecule: CO[C@H]1C[C@H](O[C@H]2CC[C@@]3(C)[C@H](CC[C@@H]4[C@@H]3CC[C@]3(C)[C@@H](C5=CC(=O)OC5)[C@@H](OC(C)=O)C[C@]43O)C2)O[C@@H](C)[C@@H]1O [oleandrin]
- bioavailability [4]: 50 to 75%

Molecule: CC1(C)CC[C@]2(C(=O)O)CC[C@]3(C)C(=CC[C@@H]4[C@@]5(C)CC[C@H](O)C(C)(C)[C@@H]5CC[C@]43C)[C@@H]2C1 [oleanolic acid]
- activity (inhibition of growth of GBM stem cells) [5, 8]: very poor activity; also recorded: little to no activity
- activity (inhibition of growth of GBM stem cells) [6, 8]: very poor activity

Molecule: C[C@H]1[C@H](C)CC[C@]2(C(=O)O)CC[C@]3(C)C(=CC[C@@H]4[C@@]5(C)CC[C@H](O)C(C)(C)[C@@H]5CC[C@]43C)[C@H]12 [Ursolic acid, ursolic acid]
- activity at concentrations below about 10 microM [5]: little to no activity
- activity at concentrations below about 5.6 microM [6]: little to no activity

Molecule: bevacizumab
- overall survival (OS) [7]: no increase
- progression-free survival (PFS) [7]: improved
